test: Human HepG2 cell viability assay in 384 well format; assay type: toxicity, cell-based; design: dose 125 nL, time 70.5 hour; cytotoxicity at 70.5 h: concentration not given beside the values; conditions: HepG2 cells, read-out: Inhibition

Going from `CC(=O)N(Cc1ncc(C)o1)C1CCN(Cc2csc(C)n2)C1` (stereo not given) to `CC(=O)N(Cc1ncc(C)o1)C1CCN(Cc2cc(C)on2)C1` (stereo not given), the cytotoxicity at 70.5 h falls from -1.47% to -4.42%.

First: CCn1cnnc1CNC(=O)N1CCN(CC(C)C)CC1
Second: CCn1cnnc1CNC(=O)N1CCN(Cc2ccco2)CC1
The cytotoxicity at 70.5 h of the first is lower: -1.52% for the first, 1.5% for the second.

Going from `Cc1cnn(CC2CCCN2C(=O)CCc2ccncc2)c1` (stereo not given) to `COc1ccc(CCC(=O)N2CCCC2Cn2cc(C)cn2)cc1F` (stereo not given), the cytotoxicity at 70.5 h falls from -1.24% to -6.64%.

First: CCn1c(C)nnc1CN(C)C1CCN(CCS(=O)(=O)CC)C1 (stereo not given)
Second: Cc1nc(CN(C)C2CCN(Cc3ccc(C(N)=O)cc3)C2)no1 (stereo not given)
The cytotoxicity at 70.5 h of the first is higher: -5.35% for the first, -11.2% for the second.

Going from `O=C(CN(Cc1ccco1)C1CC1)N1CCCCCC1` to `Cc1nc(C)n(CC2CN(CCC(=O)N3CCCCC3)CCO2)n1` (stereo not given), the cytotoxicity at 70.5 h falls from -1.39% to -6.29%.

Compared with `CS(=O)(=O)NC1CCCN(C(=O)NCc2ccccc2Cl)C1` (stereo not given), `COc1ccccc1CNC(=O)N1CCCC(NS(C)(=O)=O)C1` (stereo not given) is higher in cytotoxicity at 70.5 h: -2.53% for the first, 15.3% for the second.

Going from `Cc1ccc(CNC(=O)N2CCCC(NS(C)(=O)=O)C2)cc1` (stereo not given) to `CC(=O)NC1CCCN(C(=O)NCc2cccnc2)C1` (stereo not given), the cytotoxicity at 70.5 h falls from 2.89% to 0.9%.

Going from `CCn1cnnc1CNC(=O)N1CCC(OCc2ccccc2)CC1` to `CCn1cnnc1CNC(=O)N1CCN(CCc2ccccc2)CC1`, the cytotoxicity at 70.5 h rises from -2.7% to -2.4%.

Compared with `O=C(NCC(c1ccc(F)cc1)N1CCOCC1)Nc1cn[nH]c1` (stereo not given), `COc1ccc(C(CNC(=O)Nc2cn[nH]c2)N2CCOCC2)cc1` (stereo not given) is lower in cytotoxicity at 70.5 h: 18.9% for the first, -4.89% for the second.

Going from `Cc1cccc(C(=O)N(C)C2CCN(c3ccccn3)CC2)c1C` to `COc1ccccc1C(=O)N(C)C1CCN(c2ccccn2)CC1`, the cytotoxicity at 70.5 h falls from 2.5% to -0.00253%.

First: CN(C(=O)c1cccc(Cl)c1)C1CCN(c2ccccn2)CC1
Second: CN(C(=O)c1cc(Cl)c[nH]1)C1CCN(c2ccccn2)CC1
The cytotoxicity at 70.5 h of the first is lower: 2.1% for the first, 8.18% for the second.

Going from `CCOc1ncccc1C(=O)N(C)C1CCN(c2ccccn2)CC1` to `CCOc1ncccc1C(=O)N(C)Cc1ncc(C)c(OC)c1C`, the cytotoxicity at 70.5 h falls from 2.78% to -2.95%.

First: CCc1nc(C2CCCN(C(=O)NC(C)C)C2)no1 (stereo not given)
Second: Cc1cn2c(n1)CCC(NC(=O)c1cc(C(C)C)no1)C2 (stereo not given)
The cytotoxicity at 70.5 h of the first is higher: 21.2% for the first, -7.72% for the second.

Compared with `N#Cc1ccsc1C(=O)N1CCCN(Cc2cscn2)CC1`, `Cc1ocnc1C(=O)N1CCCN(Cc2cscn2)CC1` is higher in cytotoxicity at 70.5 h: 5.01% for the first, 21.9% for the second.

Going from `Cc1cn2c(n1)CCC(NC(=O)c1cncnc1C)C2` (stereo not given) to `Cc1ccc(CNC2CCCc3c2cnn3C)s1` (stereo not given), the cytotoxicity at 70.5 h rises from -5.83% to -4.42%.

Compared with `CC(C)c1n[nH]c(C2CN(C(=O)c3ccnc(C4CC4)n3)CCO2)n1` (stereo not given), `Cc1n[nH]c(C2CN(C(=O)c3cc(C4CC4)[nH]n3)CCO2)n1` (stereo not given) is lower in cytotoxicity at 70.5 h: 16.3% for the first, 4.51% for the second.

Going from `CCc1nncn1CCNC(=O)N1CCN(Cc2ccccc2)CC1` to `CCn1cnnc1CNC(=O)N1CCN(Cc2ccsc2)CC1`, the cytotoxicity at 70.5 h falls from 3.82% to 2.69%.

First: CCn1cc(CN2CCCN(C(=O)c3ccc(C)nc3)CC2)cn1
Second: CCn1cc(CN2CCCN(C(=O)c3cc(C)no3)CC2)cn1
The cytotoxicity at 70.5 h of the first is lower: -6.02% for the first, -2.69% for the second.

First: Cc1nc(CN(Cc2ccc3c(c2)OCCO3)C2CCCC2)no1
Second: CCN(Cc1ccc2c(c1)OCCO2)C(=O)NCc1nc(C)cs1
The cytotoxicity at 70.5 h of the first is higher: -7.64% for the first, -27.9% for the second.

Compared with `Cc1nn(C)c(N2CCOCC2)c1CNCc1ccccc1CO`, `COc1ccc(CNCc2c(C)nn(C)c2N2CCOCC2)cc1` is higher in cytotoxicity at 70.5 h: -10.1% for the first, -3.63% for the second.

Compared with `CC(C)c1nnc(CNC2CCCN(Cc3noc(C4CC4)n3)C2)o1` (stereo not given), `COCCc1noc(CNC2CCc3nc(C(C)C)nn3C2)n1` (stereo not given) is higher in cytotoxicity at 70.5 h: -5.67% for the first, -5% for the second.

First: COCCc1noc(CNCC2CCCN2c2cccnn2)n1 (stereo not given)
Second: Cc1nc(CNCC2CCCN2c2cccnn2)no1 (stereo not given)
The cytotoxicity at 70.5 h of the first is higher: 2.33% for the first, -1.22% for the second.

First: CC(C)COC(C)C(=O)NCc1ccc(N(C)C)cc1 (stereo not given)
Second: CC(C)COC(C)C(=O)NCc1ccc(OC(C)C)nc1 (stereo not given)
The cytotoxicity at 70.5 h of the first is higher: 7.68% for the first, -3.57% for the second.

First: c1cnn(CC2CN(CCc3ccncc3)CCO2)c1 (stereo not given)
Second: O=C(CN1CCOC(Cn2cccn2)C1)Nc1nncs1 (stereo not given)
The cytotoxicity at 70.5 h of the first is lower: -4.36% for the first, 34.7% for the second.

First: Cn1cnnc1C1CCCN(C(=O)c2ccccc2Cl)C1 (stereo not given)
Second: Cn1cnnc1C1CCCN(C(=O)NCCOc2ccccc2)C1 (stereo not given)
The cytotoxicity at 70.5 h of the first is lower: -4.06% for the first, 40.2% for the second.

Going from `COc1ccc(Br)c(C(=O)NCCNc2ccc(C(F)(F)F)cn2)c1` to `CC(OCC(F)(F)F)C(=O)NCc1ccc(-n2cncn2)nc1` (stereo not given), the cytotoxicity at 70.5 h rises from -13.7% to -12.1%.

Compared with `Cc1nc2c(c(C)c1CC(=O)Nc1cccc(C#N)c1)c(=O)[nH]n2C`, `Cc1nc(CN2CCN(CC(=O)Nc3c(C)cccc3C)CC2)no1` is lower in cytotoxicity at 70.5 h: 15.2% for the first, -5.01% for the second.

First: O=C(NCCS(=O)(=O)N1CCc2ccccc21)c1c(O)cc(F)cc1F
Second: O=C(CCNC(=O)c1ccoc1)Nc1c(F)cccc1F
The cytotoxicity at 70.5 h of the first is lower: -2.02% for the first, -1.23% for the second.

Compared with `Cc1n[nH]c(C2CN(C(=O)c3cnc[nH]3)CCO2)n1` (stereo not given), `CCc1n[nH]c(C2CN(Cc3nccn3CC)CCO2)n1` (stereo not given) is higher in cytotoxicity at 70.5 h: -11.1% for the first, 22.2% for the second.

Compared with `Fc1ccc(CN2CCCN(Cc3cscn3)CC2)cc1`, `c1ccc(CN2CCN(Cc3cscn3)CC2)cc1` is lower in cytotoxicity at 70.5 h: 23.4% for the first, -6.7% for the second.

Compared with `Cn1cnnc1C1CCCN(C(=O)Cc2ccc3c(c2)OCCO3)C1` (stereo not given), `CCn1cnnc1C1CCN(C(=O)C(OC)c2ccccc2)CC1` (stereo not given) is lower in cytotoxicity at 70.5 h: 0.026% for the first, -0.299% for the second.

First: Cc1ccccc1CN1CCN(CC(=O)Nc2cccnc2)CC1
Second: O=C(c1ccccc1-n1cccn1)N1CCCN(c2cccnn2)CC1
The cytotoxicity at 70.5 h of the first is higher: 5.17% for the first, -21.8% for the second.

Going from `O=C(CCCOc1ccc(F)cc1)N1CCCC(n2cccn2)C1` (stereo not given) to `O=C(c1cccc2c1OCO2)N1CCCC1Cn1cccn1` (stereo not given), the cytotoxicity at 70.5 h falls from 0.781% to -8.17%.

Compared with `CC(C)c1nccn1C1CCCN(C(=O)c2ccc3[nH]nnc3c2)C1` (stereo not given), `CC(C)c1nnc2n1CCN(C(=O)c1ccc(-n3cnnc3)cc1)C2` is lower in cytotoxicity at 70.5 h: 30.1% for the first, 27.3% for the second.

First: CC(C)c1nnc2n1CCN(CC(=O)Nc1nncs1)C2
Second: Cc1n[nH]c(C)c1NC(=O)CN1CCOC(Cn2cccn2)C1 (stereo not given)
The cytotoxicity at 70.5 h of the first is lower: -6.91% for the first, 0.504% for the second.

Compared with `O=C(c1cccnc1N1CCOCC1)N1CCCC1Cn1cccn1` (stereo not given), `O=C(c1cccn2ccnc12)N1CCCN(c2cccnn2)CC1` is lower in cytotoxicity at 70.5 h: -8.41% for the first, -20.2% for the second.

First: Cc1nc(CN2CCCC(N(C)Cc3cscn3)C2)no1 (stereo not given)
Second: Cc1cc(CN2CCOC(CN(C)c3cccnn3)C2)no1 (stereo not given)
The cytotoxicity at 70.5 h of the first is higher: 4.42% for the first, -11.5% for the second.

Compared with `Cc1nc(C)n(C2CCCN(C(=O)c3ccc(N(C)C)nn3)C2)n1` (stereo not given), `Cc1nc(CN2CCCN(C(=O)c3ccccn3)CC2)oc1C` is lower in cytotoxicity at 70.5 h: -3.22% for the first, -10.4% for the second.

Going from `CC(C)c1nc(CN2CCN(CC3CCCO3)CC2)cs1` (stereo not given) to `O=C(Nc1cc(F)ccc1OCC1CCCO1)c1ccccn1` (stereo not given), the cytotoxicity at 70.5 h falls from -2.13% to -8.61%.

First: CC(=O)Nc1nc(C(=O)NC(C)c2ccc(F)cc2)cs1 (stereo not given)
Second: CC(NC(=O)NCc1cccc(N2CCCC2=O)c1)c1ccccc1 (stereo not given)
The cytotoxicity at 70.5 h of the first is lower: -13.6% for the first, -12.2% for the second.

Compared with `CNS(=O)(=O)c1ccc(CNC(=O)NCC2CCCO2)cc1` (stereo not given), `O=C1CCCCN1c1cccc(CNC2CCCC2)c1` is higher in cytotoxicity at 70.5 h: -20.2% for the first, -17.9% for the second.

First: Cc1nnc(N2CCC(CNC(=O)OC(C)(C)C)CC2)c(C#N)c1C
Second: Cc1cccc2nc(C(=O)N3CCC(Nc4cccnn4)CC3)cn12
The cytotoxicity at 70.5 h of the first is higher: 1.28% for the first, -21.3% for the second.

In the case of `O=C(c1cccc2cccnc12)N1CCCN(c2cccnn2)CC1`, the cytotoxicity at 70.5 h is reported as -10.5%.

Reference: ChEMBL document CHEMBL3507680, “University of Dundee, Gates Library screen for HepG2 cell viability”
